Key:
BT474 cells = test: BT474 cell proliferation, BrdU-labeling; format: cell-based, human; settings: for IC50: Homo sapiens, BT-474, compound alone or titrated on top of 2 nM Protein #21-His, read-out: cell proliferation inhibition constant IC50, BT474
Experimental: Protein #21-His and Protein #23-His, were expressed and purified as described in Example 1. Effects of the recombinant binding proteins on BT474 cell proliferation were determined by measuring DNA synthesis using BrdU-labeling (BrdU, Cell Proliferation ELISA, Roche). Briefly, 10000 BT474 cells were seeded per well in a 96 well plate in 100 ul complete medium and incubated for 24 hours. Recombinant binding proteins or controls were added for an additional 72 hours. BrdU for cell labeling was added for the last 24 hours. Labeled (proliferating) cells were detected according to the manufactures protocol. The data were analyzed using the GraphPad prism software, plotting log [c] on the x-axis against OD450-602 nm on the y-axis. Data were fitted using a non-linear regression fit (log(antagonist) vs. response—Variable slope (four parameters)) deriving IC50 values.
(§1) Protein #21 and Protein #21-His were expressed and purified as described in Example 1. Standard BrdU cell proliferation assays were performed, well-known to the person skilled in the art. Briefly, effects on cell proliferation of Protein #21-His, other compounds, or Protein #21-His in combination with other compounds, were determined by measuring DNA synthesis using BrdU-labeling (BrdU, Cell Proliferation ELISA, Roche). Briefly, 10000 cells were seeded per well in a 96 well plate in 100 μl complete medium and incubated for 24 hours. Protein #21-His and/or compounds were added for an additional 72 hours. BrdU for cell labeling was added for the last 24 hours. Labeled (proliferating) cells were detected according to the manufactures protocol. The data were analyzed using the Graph Pad prism software (log [c] vs. OD450-602 nm plot). Data were fitted using a non-linear regression fit (log(antagonist) vs. response—variable slope (four parameters)).

MDA-MB175 cells = test: MDA-MB175 cell proliferation, BrdU-labeling; format: cell-based; settings: for IC50: compound alone or titrated on top of 4 nM Protein #21-His, read-out: cell proliferation inhibition constant IC50, MDA-MB175
Experimental: as §1

[1] = Pharmacokinetic analysis in cynomolgus monkey; format: in vivo; settings: 1 mg/kg, intravenous infusion
Experimental: The measurements shown in this example are the result of a half-life engineering effort as described in Example 11. Protein #21-His, Protein #23-His, and Protein #24-His were expressed and purified as described in Example 1. The pharmacokinetic properties of the proteins were assessed in cynomolgus monkey. Proteins were administered via intravenous infusion for 30 min at a target dose level of between 1 mg/kg to cynomolgus monkeys. Blood samples were collected pre-dose and again at selected time points, for example 5 min, 10 min, 0.5 hours, 1 hour, 2 hours, 4 hours, 8 hours, 12 hours, 24 hours, 48 hours, 72 hours, 96 hours, 120 hours, 144 hours, 168 hours, 192 hours, 216 hours, and 240 hours post-end of infusion (i.e. post-injection). The blood samples were allowed to stand at room temperature and were centrifuged to generate serum, followed by storage at −80° C. pending analyses. Pharmacokinetic parameters were determined using procedures well known to the person skilled in the art. Serum concentrations of proteins were determined by sandwich ELISA using a rabbit monoclonal anti-designed ankyrin repeat domain antibody as capture reagent and murine monoclonal anti-designed ankyrin repeat domain antibody as detection reagent, and using a standard curve. Pharmacokinetic parameters were determined using standard software such as Phoenix WinNonLin (Certara, Princeton, USA) or Graph Pad Prism (GraphPad Software, La Jolla, USA) and standard analyses such as non-compartmental analyses. […] Target mediated clearance is well-known to the person skilled in the art and is known from e.g. antibodies targeting HER2.
Similarly, Protein #21-His was expressed and purified as described in Example 1. The pharmacokinetic properties of the proteins were assessed in cynomolgus monkey as described above at 1 mg/kg, 5 mg/kg and 10 mg/kg.
Similar results are observed when testing Protein #21 (expressed and purified as described in Example 1). The pharmacokinetic properties of the proteins are assessed in cynomolgus monkey as described above at 1 mg/kg, 10 mg/kg and 100 mg/kg. Pharmacokinetic parameters are evaluated as described above.
(§2) For the studies in this example Protein #21-His, Protein #24-His, Protein #28-His, Protein #29-His, and Protein #30-His were prepared according to Example 1. Protein #28-His was additionally PEGylated using a 40 kDa PEG moiety (NOF Sunbright GL2-400MA) by maleimid coupling of the PEG-moiety onto the free C-terminal cysteine of Protein #28-His, followed by purification to homogeneity using standard purification methods, procedures well known to the person skilled in the art. Pharmacokinetic analyses in mouse or cynomolgus monkey were performed as described in Examples 8 and 9.

[2] = Storage stability in PBS analysed by size-exclusion chromatography; format: physicochemical; settings: 10 mg/ml in PBS, 1 month at −80° C.
Experimental: A storage stability improvement is also observed, when testing the storage stability of Protein #21 and Protein #22 (recombinant binding proteins consisting of the amino acid sequences corresponding to SEQ ID NOs: 21 and 22, respectively). Protein #21 and Protein #22 are prepared as described in Example 1, samples are concentrated to 10 mg/ml in PBS and stored for 1 month at −80° C. in or at 40° C. in glass vials, followed by analysis on standard size-exclusion chromatography.

[3] = Pharmacokinetic analysis in mouse; format: in vivo
Experimental: The measurements shown in this example are the result of a half-life engineering effort as described in Example 11. Protein #21-His and Protein #23-His were expressed and purified as described in Example 1. The pharmacokinetic properties of the His-tagged proteins were assessed in mouse as described elsewhere (Zahnd, C., Kawe, M., Stumpp, M. T., de Pasquale, C., Tamaskovic, R., Nagy-Davidescu, G., Dreier, B., Schibli, R., Binz, H. K., Waibel, R., Plückthun, A., Cancer Res. 70, 1595-1605, 2010). […] Having SEQ ID NO: 16 present in the recombinant binding protein thus appears to be more favorable than having SEQ ID NO: 18 present.
Polypeptide linkers that link protein domains are well-known to the person skilled in the art. Gly-Ser-rich linkers are well-known from single-chain Fv antibody fragments, where they have proven to be most appropriate to link the two Fv polypeptide chains. […] Protein #26-His and Protein #27-His, were expressed and purified as described in Example 1. Pharmacokinetic analyses in mouse were performed as described in Example 8.
as §2

For `CS(=O)(=O)CCNCc1ccc(-c2ccc3ncnc(Nc4ccc(OCc5cccc(F)c5)c(Cl)c4)c3c2)o1` [Lapatinib], which IC50 (BT474 cells) is on record?
The IC50 was 765 nM.

What about the IC50 (MDA-MB175 cells) of the same molecule?
The IC50 was 2810 nM.

With `C=C1C[C@@H]2CC[C@@]34C[C@H]5O[C@H]6[C@@H](O3)[C@H]3O[C@H](CC[C@@H]3O[C@H]6[C@H]5O4)CC(=O)C[C@@H]3[C@@H](OC)[C@@H](C[C@H](O)CN)O[C@H]3C[C@H]3O[C@@H](CC[C@@H]1O2)C[C@@H](C)C3=C` [Eribulin] as the molecule, how does the “inhibition of BT474 cell proliferation, in words” value (BT474 cells; single agent or on top of suboptimal Protein #21-His (2 nM) or Protein #21 (1 nM)) read?
The value was “not active”.

And the IC50 (MDA-MB175 cells)?
The IC50 was 104 nM.

And the “inhibition of MDA-MB175 cell proliferation, in words” value (MDA-MB175 cells; single agent or on top of suboptimal Protein #21-His (4 nM) or Protein #21 (10 nM))?
The value was “very low potency”.

For `CO[C@H]1C[C@@H]2CC[C@@H](C)[C@@](O)(O2)C(=O)C(=O)N2CCCC[C@H]2C(=O)O[C@H]([C@H](C)C[C@@H]2CC[C@@H](OCCO)[C@H](OC)C2)CC(=O)[C@H](C)/C=C(\C)[C@@H](O)[C@@H](OC)C(=O)[C@H](C)C[C@H](C)/C=C/C=C/C=C/1C` [Everolimus], which IC50 (MDA-MB175 cells) is on record?
The IC50 was 263000 nM.

With `CS(=O)(=O)N1CCN(Cc2cc3nc(-c4cccc5[nH]ncc45)nc(N4CCOCC4)c3s2)CC1` [GDC-0941] as the molecule, how does the IC50 (BT474 cells) read?
Its IC50 is 176 nM.

And the IC50 (MDA-MB175 cells)?
The IC50 was 203 nM.

B1: Protein #24-His: SEQ ID NO: 24 with a His-tag (SEQ ID NO: 1) fused to its N terminus (protein)
chain: MRGSHHHHHHGSDLGKKLLEAARAGQDDEVRELLKAGADVNAKDYFSHTPLHLAARNGHLKIVEVLLKAGADVNAKDFAGKTPLHLAANEGHLEIVEVLLKAGADVNAQDIFGKTPADIAADAGHEDIAEVLQKAAGSPTPTPTTPTPTPTTPTPTPTGSDLGKKLLEAARAGQDDEVRELLKAGADVNAKDYFSHTPLHLAARNGHLKIVEVLLKAGADVNAKDFAGKTPLHLAANEGHLEIVEVLLKAGADVNAQDIFGKTPADIAADAGHEDIAEVLQKAAGSPTPTPTTPTPTPTTPTPTPTGSDLGIKLLFAAAKGQDDEVRELLKAGADVNAKDFQGVTPLHIAAQSGHLEIVEVLLKAGADVNAKDVTGDTPLHLAAQHGHLEIVEVLLKAGADVNAQDERGWTPADLAADWGHEDIAEVLQKAAGSPTPTPTTPTPTPTTPTPTPTGSDLGKKLLEAARAGQDDEVRELLKAGADVNAKDEYGLTPLYLATAHGHLEIVEVLLKAGADVNAVDAIGFTPLHLAAFIGHLEIAEVLLKAGADVNAQDKFGKTPADIAAGAGNEDIAEVLQKAA
modifications: His-tag; Protein comprising four designed ankyrin repeat domains
For B1, which terminal half-life [1] is on record?
Its terminal half-life is 45 h.

B2: Protein #22: SEQ ID NO: 22; corresponding recombinant binding protein with serum albumin binding domains of SEQ ID NO: 13 (protein)
chain: GSDLGKKLLEAARAGQDDEVRELLKAGADVNAKDYFSHTPLHLAARNGHLKIVEVLLKAGADVNAKDFAGKTPLHLAANDGHLEIVEVLLKAGADVNAQDIFGKTPADIAADAGHEDIAEVLQKAAGSPTPTPTTPTPTPTTPTPTPTGSDLGIKLLFAAAKGQDDEVRELLKAGADVNAKDFQGVTPLHIAAQSGHLEIVEVLLKAGADVNAKDVTGDTPLHLAAQHGHLEIVEVLLKAGADVNAQDERGWTPADLAADWGHEDIAEVLQKAAGSPTPTPTTPTPTPTTPTPTPTGSDLGKKLLEAARAGQDDEVRELLKAGADVNAKDEYGLTPLYLATAHGHLEIVEVLLKAGADVNAVDAIGFTPLHLAAFIGHLEIAEVLLKAGADVNAQDKFGKTPADIAAGAGNEDIAEVLQKAAGSPTPTPTTPTPTPTTPTPTPTGSDLGKKLLEAARAGQDDEVRELLKAGADVNAKDYFSHTPLHLAARNGHLKIVEVLLKAGADVNAKDFAGKTPLHLAANDGHLEIVEVLLKAGADVNAQDIFGKTPADIAADAGHEDIAEVLQKAA
modifications: Protein comprising four designed ankyrin repeat domains
With B2 as the molecule, how does the “elution profiles upon storage at −80° C.” value [2] read?
Its value is “equivalent elution profiles”.

B3: Protein #23-His: SEQ ID NO: 23 with a His-tag (SEQ ID NO: 1) fused to its N terminus (protein)
chain: MRGSHHHHHHGSDLGKKLLEAARAGQDDEVRELLKAGADVNAKDYFSHTPLHLAARNGHLKIVEVLLKAGADVNAKDFAGKTPLHLAANEGHLEIVEVLLKAGADVNAQDIFGKTPADIAADAGHEDIAEVLQKAAGSPTPTPTTPTPTPTTPTPTPTGSDLGVKLLWAAARGQDDEVRELLKAGADVNAKDFQGITPLHIAATNGHLEIVEVLLKAGADVNAKDITGETPLHHAADSGHLEIVEVLLKAGADVNAQDKAGVTPADLAAAWGHEDIAEVLQKAAGSPTPTPTTPTPTPTTPTPTPTGSDLGKKLLEAARAGQDDEVRELLKAGADVNAKDEYGLTPLYLATAHGHLEIVEVLLKAGADVNAVDAIGFTPLHLAAFIGHLEIAEVLLKAGADVNAQDKFGKTPADIAAGAGNEDIAEVLQKAAGSPTPTPTTPTPTPTTPTPTPTGSDLGKKLLEAARAGQDDEVRELLKAGADVNAKDYFSHTPLHLAARNGHLKIVEVLLKAGADVNAKDFAGKTPLHLAANEGHLEIVEVLLKAGADVNAQDIFGKTPADIAADAGHEDIAEVLQKAA
modifications: His-tag; Protein comprising four designed ankyrin repeat domains
For B3, which “IC50 higher than that of Protein #21-His” value (BT474 cells; BT474 proliferation) is on record?
The value was 60%.

What about the “% ID remaining after 48 hours” value [3] of the same molecule?
The value was 6.5 % ID.

What about the terminal half-life [3] of the same molecule?
The terminal half-life was 24.7 h.

What about the terminal half-life [1] of the same molecule?
Its terminal half-life is 35 h.

— patent publication US20210130420A1, “RECOMBINANT BINDING PROTEINS TARGETING HER2 AND SERUM ALBUMIN, AND THEIR USES” (Molecular Partners AG, priority 2016, published 2021)
